Like-named read-outs stand apart in the source and are kept apart here. Marks after values point to notes of the source that are not given here.
Tests used:
[1] = target: GluN1/GluN2D L705F (Rattus norvegicus, UniProt P35439+Q62645, L705F); assay: Two-electrode voltage-clamp recordings, mutant receptor in Xenopus oocytes; assay type: cell-based
[2] = target: GluN1/GluN2D M726A (Rattus norvegicus, UniProt Q62645, M726A); assay: as above; assay type: cell-based
[3] = target: GluN1/GluN2D M726A (Rattus norvegicus, UniProt P35439+Q62645, M726A); assay: as above; assay type: cell-based
[4] = target: GluN1/GluN2D (Rattus norvegicus, UniProt P35439+Q62645); assay type: cell-based
[5] = target: GluN1/GluN2D (Rattus norvegicus, UniProt Q62645); assay type: cell-based
[6] = extracellular oocyte recording solution; ref Mosley et al., 2010; cited from earlier work
[7] = target: GluN1/GluN2A (Rattus norvegicus, UniProt Q00959); assay type: cell-based
[8] = 1 μM QNZ46 plus glycine continuously present, after removal of glutamate
[9] = 3 μM QNZ46 plus glycine continuously present, after removal of glutamate

GluN1/GluN2D (Rattus norvegicus, UniProt P35439+Q62645), sequence (Q62645 28-1323, other chains not shown): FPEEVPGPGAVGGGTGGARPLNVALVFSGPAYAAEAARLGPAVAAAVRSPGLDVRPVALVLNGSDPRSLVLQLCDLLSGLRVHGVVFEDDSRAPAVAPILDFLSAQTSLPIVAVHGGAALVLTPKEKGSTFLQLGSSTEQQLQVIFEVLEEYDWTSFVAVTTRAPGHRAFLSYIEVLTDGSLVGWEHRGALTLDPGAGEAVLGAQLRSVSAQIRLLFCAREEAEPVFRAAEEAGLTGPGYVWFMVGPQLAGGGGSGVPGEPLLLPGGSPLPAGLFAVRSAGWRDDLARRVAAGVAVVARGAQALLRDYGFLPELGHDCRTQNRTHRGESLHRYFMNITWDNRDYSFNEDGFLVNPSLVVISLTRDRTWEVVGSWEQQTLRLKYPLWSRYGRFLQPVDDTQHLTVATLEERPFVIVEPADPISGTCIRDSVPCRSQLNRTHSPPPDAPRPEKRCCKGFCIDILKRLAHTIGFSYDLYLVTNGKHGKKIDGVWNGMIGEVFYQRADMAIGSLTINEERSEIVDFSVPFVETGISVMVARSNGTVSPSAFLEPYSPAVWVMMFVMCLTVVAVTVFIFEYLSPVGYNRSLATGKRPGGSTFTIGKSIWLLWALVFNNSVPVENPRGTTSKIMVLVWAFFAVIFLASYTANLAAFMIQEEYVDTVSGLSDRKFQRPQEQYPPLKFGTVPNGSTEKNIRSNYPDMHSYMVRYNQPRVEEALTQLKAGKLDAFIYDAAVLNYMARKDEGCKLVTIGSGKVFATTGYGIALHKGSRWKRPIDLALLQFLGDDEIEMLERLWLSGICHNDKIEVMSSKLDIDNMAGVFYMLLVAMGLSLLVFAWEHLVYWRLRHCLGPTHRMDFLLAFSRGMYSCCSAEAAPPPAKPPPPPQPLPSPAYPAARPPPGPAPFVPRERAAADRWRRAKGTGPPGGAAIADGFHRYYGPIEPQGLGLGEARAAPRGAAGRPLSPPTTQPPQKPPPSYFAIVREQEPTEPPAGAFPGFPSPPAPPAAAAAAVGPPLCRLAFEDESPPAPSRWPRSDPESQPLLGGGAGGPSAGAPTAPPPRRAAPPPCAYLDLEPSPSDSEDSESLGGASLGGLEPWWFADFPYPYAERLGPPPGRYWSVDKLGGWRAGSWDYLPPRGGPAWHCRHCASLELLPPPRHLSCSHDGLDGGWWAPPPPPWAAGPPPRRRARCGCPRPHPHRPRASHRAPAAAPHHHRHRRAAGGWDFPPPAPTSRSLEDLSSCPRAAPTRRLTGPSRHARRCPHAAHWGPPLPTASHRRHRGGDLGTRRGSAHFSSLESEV
GluN1/GluN2D (Rattus norvegicus, UniProt Q62645), sequence (Q62645 28-1323, other chains not shown): as above
GluN1/GluN2D M726A (Rattus norvegicus, UniProt Q62645, M726A), sequence (Q62645 28-1323 M726A, other chains not shown): as the sequence (Q62645 28-1323, other chains not shown) above, with M699A counted along it
GluN1/GluN2A, sequence (Q00959 23-1464, other chains not shown): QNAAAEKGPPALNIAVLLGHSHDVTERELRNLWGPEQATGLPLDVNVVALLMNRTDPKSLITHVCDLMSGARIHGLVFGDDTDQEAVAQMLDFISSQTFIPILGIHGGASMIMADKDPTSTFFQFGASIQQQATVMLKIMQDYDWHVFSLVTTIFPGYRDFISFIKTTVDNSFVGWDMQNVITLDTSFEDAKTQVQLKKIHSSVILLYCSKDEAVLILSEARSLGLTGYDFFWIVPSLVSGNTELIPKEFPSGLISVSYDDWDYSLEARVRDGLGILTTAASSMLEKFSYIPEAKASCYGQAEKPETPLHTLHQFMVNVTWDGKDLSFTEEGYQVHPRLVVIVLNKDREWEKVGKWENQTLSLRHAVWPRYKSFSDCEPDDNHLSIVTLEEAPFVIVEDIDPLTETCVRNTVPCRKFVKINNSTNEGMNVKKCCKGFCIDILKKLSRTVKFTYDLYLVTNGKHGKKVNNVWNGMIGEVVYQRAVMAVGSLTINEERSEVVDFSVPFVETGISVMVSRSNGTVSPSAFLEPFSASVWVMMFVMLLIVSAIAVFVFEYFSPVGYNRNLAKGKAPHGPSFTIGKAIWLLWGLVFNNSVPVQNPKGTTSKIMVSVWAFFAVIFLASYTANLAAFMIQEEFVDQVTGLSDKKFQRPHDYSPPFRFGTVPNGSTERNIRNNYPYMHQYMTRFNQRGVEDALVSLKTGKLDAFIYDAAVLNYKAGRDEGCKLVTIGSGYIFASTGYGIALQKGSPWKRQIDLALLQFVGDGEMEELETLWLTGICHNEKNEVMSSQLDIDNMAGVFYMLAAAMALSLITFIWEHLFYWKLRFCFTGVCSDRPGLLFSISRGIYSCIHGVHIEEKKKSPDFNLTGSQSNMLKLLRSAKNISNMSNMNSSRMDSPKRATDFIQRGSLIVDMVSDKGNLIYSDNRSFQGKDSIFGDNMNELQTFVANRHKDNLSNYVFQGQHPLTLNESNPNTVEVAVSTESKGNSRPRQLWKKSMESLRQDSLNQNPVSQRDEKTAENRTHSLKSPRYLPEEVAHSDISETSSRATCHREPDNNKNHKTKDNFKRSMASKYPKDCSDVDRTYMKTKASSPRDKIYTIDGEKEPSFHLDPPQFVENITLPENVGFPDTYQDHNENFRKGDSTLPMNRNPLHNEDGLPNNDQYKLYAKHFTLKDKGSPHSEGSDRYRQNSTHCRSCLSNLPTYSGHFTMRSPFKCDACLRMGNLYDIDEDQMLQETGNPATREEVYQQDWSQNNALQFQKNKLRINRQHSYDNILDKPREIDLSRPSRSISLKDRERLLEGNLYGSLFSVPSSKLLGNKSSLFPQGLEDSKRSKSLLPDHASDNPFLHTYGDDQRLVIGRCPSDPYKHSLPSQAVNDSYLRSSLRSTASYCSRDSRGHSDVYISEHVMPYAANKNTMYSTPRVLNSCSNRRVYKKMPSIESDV
GluN1/GluN2D L705F, sequence (Q62645 28-1323 L705F, other chains not shown): as the sequence (Q62645 28-1323, other chains not shown) above, with L678F counted along it
GluN1/GluN2D M726A (Rattus norvegicus, UniProt P35439+Q62645, M726A), sequence (Q62645 28-1323 M726A, other chains not shown): as the sequence (Q62645 28-1323, other chains not shown) above, with M699A counted along it

With COc1ccc2nc(/C=C/c3cccc([N+](=O)[O-])c3)n(-c3ccc(C(=O)O)cc3)c(=O)c2c1 [QNZ46, (E)-4-(6-methoxy-2-(3-nitrostyryl)-4-oxoquinazolin-3(4H)-yl)-benzoic acid] the IC50 [1] was 23 ± 2 µM, the “nH (Hill slope)” value [2] was 1.1 and the “Relative IC50 (IC50 2X / IC50 2D)” value ([2]; fold shift relative to GluN2D) was 0.1. It also gave an IC50 [3] of 0.5 ± 0.02 µM, a Kd [4] of 4.9 µM and an inhibition at 1 µM ([4]; HEK293, read-out: % inhibition of steady-state responses, 1 μM QNZ46 applied after activation) of 23 ± 1%. For the same molecule, the inhibition at 1 µM ([4]; HEK293, read-out: % inhibition of steady-state responses, 1 μM QNZ46 present before, during, and after activation) was 28 ± 3%, the inhibition at 3 µM ([4]; HEK293, read-out: % inhibition of steady-state responses, 3 μM QNZ46 applied after activation) was 50 ± 2% and the inhibition at 3 µM ([4]; HEK293, read-out: % inhibition of steady-state responses, 3 μM QNZ46 present before, during, and after activation) was 46 ± 3%. It also gave an inhibition at 10 µM ([4]; HEK293, read-out: % inhibition of steady-state responses, 10 μM QNZ46 applied after activation) of 75 ± 1%, an inhibition at 10 µM ([4]; HEK293, read-out: % inhibition of steady-state responses, 10 μM QNZ46 present before, during, and after activation) of 73 ± 2% and an inhibition at 20 µM ([4]; HEK293, read-out: % inhibition of steady-state responses, 20 μM QNZ46 applied after activation) of 88 ± 1%. The inhibition at 20 µM ([4]; HEK293, read-out: % inhibition of steady-state responses, 20 μM QNZ46 present before, during, and after activation) was 85 ± 2%, the inhibition at 10 µM ([4]; HEK293, read-out: inhibition of the instantaneous current (pre-inhibition), 10 μM QNZ46 alone, nominal absence of glutamate plus glycine) was ~11% and the τinhibition ([5]; 1 μM QNZ46 applied after activation) was 356 ± 6 ms. For the same molecule, the Deactivation % slow ([5]; 1 μM QNZ46 plus glycine continuously present) was 78%, the “Deactivation τfast” value [5, 8] was 1210 ± 150 ms and the “Deactivation τslow” value [5, 8] was 5640 ± 160 ms. It also gave a τinhibition ([5]; 1 μM QNZ46 present before, during, and after activation) of 344 ± 6 ms, a τinhibition ([5]; 3 μM QNZ46 applied after activation) of 268 ± 11 ms and a Deactivation % slow ([5]; 3 μM QNZ46 plus glycine continuously present) of 79%. The “Deactivation τfast” value [5, 9] was 1340 ± 50 ms, the “Deactivation τslow” value [5, 9] was 7100 ± 180 ms and the τinhibition ([5]; 3 μM QNZ46 present before, during, and after activation) was 244 ± 5 ms. For the same molecule, the voltage-dependence of inhibition ([5]; 10 μM QNZ46, 1000 μM glutamate plus 100 μM glycine) was “independent of membrane holding potential”, the τinhibition ([5]; 10 μM QNZ46 applied after activation) was 145 ± 13 ms and the Deactivation % slow ([5]; 10 μM QNZ46 plus glycine continuously present) was 100%. For the same molecule, the “Deactivation τslow” value ([5]; 10 μM QNZ46 plus glycine continuously present, mono-exponential fit) was 8150 ± 330 ms, the τinhibition ([5]; 10 μM QNZ46 present before, during, and after activation) was 116 ± 3 ms and the τinhibition ([5]; 20 μM QNZ46 applied after activation) was 91 ± 11 ms. For the same molecule, the Deactivation % slow ([5]; 20 μM QNZ46 plus glycine continuously present) was 100%, the “Deactivation τslow” value ([5]; 20 μM QNZ46 plus glycine continuously present, mono-exponential fit) was 10130 ± 280 ms and the τinhibition ([5]; 20 μM QNZ46 present before, during, and after activation) was 74 ± 2 ms. For the same molecule, the “increase in QNZ46 potency by glutamate binding to GluN2D” value ([5]; IC50 with glutamate vs glycine alone or no agonists) was > 10 fold, the “τoff for QNZ46” value ([5]; continuous presence of glutamate) was 460 ms and the “dependence of inhibition on agonist concentration” value ([5]; increasing concentrations of glutamate or glycine) was “independent of agonist concentration”. For the same molecule, the “increase of time constants for deactivation (τweighted) in the presence of QNZ46” value ([5]; up to, QNZ46 1 – 20 μM, after removal of glutamate) was ~ 2 fold, the maximum solubility [6] was 70 µM and the “nH (Hill slope)” value ([7]; fixed during fitting to the Hill equation) was 1.0 ^a. For the same molecule, the “Relative IC50 (IC50 2X / IC50 2D)” value ([7]; fold shift relative to GluN1/GluN2D) was 47.

— PMC3063124 (The Journal of neuroscience : the official journal of the …, 2011)
